# Laboratory results as given in US7411083B2, “Substituted acetic acid derivatives” (Wyeth, priority 2003, dated 2008).
# Target: T1, recombinant human plasminogen activator inhibitor-1 (PAI-1) (Homo sapiens, UniProt P05121)
# T1 construct: purchased Molecular Innovations, Royal Oak, Mich
# Assay: Screening for PAI-1 inhibition (residual tPA activity, Spectrozyme-tPA chromogenic substrate)
# Type: biochemical
# Conditions: test compound at 100 Um; pH 6.6 buffer, 140 nM PAI-1, 70 nM tPA
# Description: Screening for PAI-1 inhibition. Test compounds are dissolved in DMSO at a final concentration of 10 Mm, then diluted 100× in physiologic buffer. The inhibitory assay is initiated by the addition of the test compound (1-100 μM final concentration, maximum DMSO concentration of 0.2%) in a Ph 6.6 buffer containing 140 Nm recombinant human plasminogen activator inhibitor-1 (PAI-1; Molecular Innovations, Royal Oak, Mich.). Following a 1 hour incubation at room temperature, 70 Nm of recombinant human tissue plasminogen activator (Tpa) is added, and the combination of the test compound, PAI-1 and Tpa is incubated for an additional 30 minutes. Following the second incubation, Spectrozyme-Tpa (American Diagnostica, Greenwich, Conn.), a chromogenic substrate for Tpa, is added and absorbance read at 405 nm at 0 and 60 minutes. Relative PAI-1 inhibition is equal to the residual Tpa activity in the presence of the test compounds and PAI-1. Control treatments include the complete inhibition of Tpa by PAI-1 at the molar ratio employed (2:1), and the absence of any effect of the test compound on Tpa alone.
# T1 sequence (P05121 24-402): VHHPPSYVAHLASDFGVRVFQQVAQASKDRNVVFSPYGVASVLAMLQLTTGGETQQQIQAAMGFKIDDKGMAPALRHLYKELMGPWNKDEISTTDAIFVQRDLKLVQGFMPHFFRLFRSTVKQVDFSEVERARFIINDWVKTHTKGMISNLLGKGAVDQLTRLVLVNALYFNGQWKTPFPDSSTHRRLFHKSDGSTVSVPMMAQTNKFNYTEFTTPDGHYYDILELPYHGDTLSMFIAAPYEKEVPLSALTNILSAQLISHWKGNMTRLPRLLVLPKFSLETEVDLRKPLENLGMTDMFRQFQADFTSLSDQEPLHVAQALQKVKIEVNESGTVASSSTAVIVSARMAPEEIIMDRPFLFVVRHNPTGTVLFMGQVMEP
row,inhibition at 100 µM [%],SMILES
1,27,"O=C(O)CO/N=C/c1ccc(-c2cccc(OCc3ccc(Cl)cc3)c2)cc1 [Compound 95, {[((1E)-{3′-[(4-chlorobenzyl)oxy]-1,1′-biphenyl-4-yl}methylidene)amino]oxy}acetic acid]"
2,48,"Cn1cc(/C=N/OCC(=O)O)c2cc(OCc3cccc(Cl)c3)ccc21 [Compound 39, {[((1E)-{5-[(3-chlorobenzyl)oxy]-1-methyl-1H-indol-3-yl}methylidene)amino]oxy}acetic acid]"
3,100,"O=C(O)CO/N=C/c1cc(OCc2ccc(Br)cc2)cc(OCc2ccc(Br)cc2)c1 [Compound 145, {[((1E)-{3,5-bis[(4-bromobenzyl)oxy]phenyl}methylidene)amino]oxy}acetic acid]"
4,65,"O=C(O)CO/N=C/c1ccc(-c2cccc(OCc3ccc(Cl)c(Cl)c3)c2)cc1 [Compound 97, {[((1E)-{3′-[(3,4-dichlorobenzyl)oxy]-1,1′-biphenyl-4-yl}methylidene)amino]oxy}acetic acid]"
5,85,"O=C(O)CO/N=C/c1cc(OCc2cccc(Cl)c2)ccc1OCc1cccc(Cl)c1 [Compound 157, {[((1E)-{2,5-bis[(3-chlorobenzyl)oxy]phenyl}methylidene)amino]oxy}acetic acid]"
6,75,"O=C(O)CO/N=C/c1cccc(-c2ccc(OCc3ccc(Br)cc3)cc2)c1 [Compound 75, {[((1E)-{4′-[(4-bromobenzyl)oxy]-1,1′-biphenyl-3-yl}methylidene)amino]oxy}acetic acid]"
7,80,"CCn1cc(/C=N/OCC(=O)O)c2cc(OCc3cccc(Br)c3)ccc21 [Compound 14, {[((1E)-{5-[(3-bromobenzyl)oxy]-1-ethyl-1H-indol-3-yl}methylidene)amino]oxy}acetic acid]"
8,79,"O=C(O)CO/N=C/c1cn(Cc2ccccc2)c2ccc(OCc3cccc(C(F)(F)F)c3)cc12 [Compound 24, ({[(1E)-(1-benzyl-5-{[3-(trifluoromethyl)benzyl]oxy}-1H-indol-3-yl)methylidene]amino}oxy)acetic acid]"
9,87,"Cc1ccc(COc2ccc(/C=N/OCC(=O)O)c(OCc3ccc(C)cc3)c2)cc1 [Compound 122, {[((1E)-{2,4-bis[(4-methylbenzyl)oxy]phenyl}methylidene)amino]oxy}acetic acid]"
10,79,"C#CCn1cc(/C=N/OCC(=O)O)c2cc(OCc3ccccc3Cl)ccc21 [Compound 48, [({(1E)-[5-[(2-chlorobenzyl)oxy]-1-(2-propynyl)-1H-indol-3-yl]methylidene}amino)oxy]acetic acid]"
11,76,"Cc1ccc(COc2ccc(OCc3ccc(C)cc3)c(/C=N/OCC(=O)O)c2)cc1 [Compound 160, {[((1E)-{2,5-bis[(4-methylbenzyl)oxy]phenyl}methylidene)amino]oxy}acetic acid]"
12,100,"O=C(O)CO/N=C/c1cc(OCc2cccc(C(F)(F)F)c2)ccc1OCc1cccc(C(F)(F)F)c1 [Compound 152, ({[(1E)-(2,5-bis{[3-(trifluoromethyl)benzyl]oxy}phenyl)methylidene]amino}oxy)acetic acid]"
13,86,"C#CCn1cc(/C=N/OCC(=O)O)c2cc(OCc3ccc(Cl)c(Cl)c3)ccc21 [Compound 51, [({(1E)-[5-[(3,4-dichlorobenzyl)oxy]-1-(2-propynyl)-1H-indol-3-yl]methylidene}amino)oxy]acetic acid]"
14,22,"Cc1cccc(COc2ccc(-c3cccc(/C=N/OCC(=O)O)c3)cc2)c1 [Compound 86, {[((1E)-{4′-[(3-methylbenzyl)oxy]-1,1′-biphenyl-3-yl}methylidene)amino]oxy}acetic acid]"
15,68,"O=C(O)CO/N=C/c1ccc(C#CCOc2cc(Cl)cc(Cl)c2)cc1 [Compound 165, {[((1E)-{4-[3-(3,5-dichlorophenoxy)prop-1-ynyl]phenyl}methylidene)amino]oxy}acetic acid]"
16,94,"Cc1ccc(COc2cccc(/C=N/OCC(=O)O)c2OCc2ccc(C)cc2)cc1 [Compound 140, {[((1E)-{2,3-bis[(4-methylbenzyl)oxy]phenyl}methylidene)amino]oxy}acetic acid]"
17,71,"O=C(O)CO/N=C/c1cn(Cc2ccccc2)c2ccc(OCc3cccc(Br)c3)cc12 [Compound 15, {[((1E)-{1-benzyl-5-[(3-bromobenzyl)oxy]-1H-indol-3-yl}methylidene)amino]oxy}acetic acid]"
18,65,"O=C(O)CO/N=C/c1cccc(OCc2ccc(Br)cc2)c1OCc1ccc(Br)cc1 [Compound 132, {[((1E)-{2,3-bis[(4-bromobenzyl)oxy]phenyl}methylidene)amino]oxy}acetic acid]"

row,inhibition at 100 µM [%],SMILES
1,49,"CC(C)(C)c1ccc(COc2cc(/C=N/OCC(=O)O)cc(OCc3ccc(C(C)(C)C)cc3)c2)cc1 [Compound 146, {[((1E)-{3,5-bis[(4-tert-butylbenzyl)oxy]phenyl}methylidene)amino]oxy}acetic acid]"
2,96,"O=C(O)CO/N=C/c1cn(Cc2ccccc2)c2ccc(OCc3ccccc3)cc12 [Compound 41, [({(1E)-[1-benzyl-5-(benzyloxy)-1H-indol-3-yl]methylidene}amino)oxy]acetic acid]"
3,95,"O=C(O)CO/N=C/c1ccc(OCc2ccc(C(F)(F)F)cc2)cc1OCc1ccc(C(F)(F)F)cc1 [Compound 124, ({[(1E)-(2,4-bis{[4-(trifluoromethyl)benzyl]oxy}phenyl)methylidene]amino}oxy)acetic acid]"
4,88,"O=C(O)CO/N=C/c1ccc(OCc2cccc(Br)c2)c(OCc2cccc(Br)c2)c1 [Compound 117, {[((1E)-{3,4-bis[(3-bromobenzyl)oxy]phenyl}methylidene)amino]oxy}acetic acid]"
5,91,"O=C(O)CO/N=C/c1cc(OCc2cccc(C(F)(F)F)c2)cc(OCc2cccc(C(F)(F)F)c2)c1 [Compound 149, ({[(1E)-(3,5-bis{[3-(trifluoromethyl)benzyl]oxy}phenyl)methylidene]amino}oxy)acetic acid]"
6,5,"O=C(O)CO/N=C/c1ccc(-c2ccc(OCc3cccc(Cl)c3)cc2)cc1 [Compound 104, {[((1E)-{4′-[(3-chlorobenzyl)oxy]-1,1′-biphenyl-4-yl}methylidene)amino]oxy}acetic acid]"
7,56,"CCn1cc(/C=N/OCC(=O)O)c2cc(OCc3cccc(C(F)(F)F)c3)ccc21 [Compound 23, ({[(1E)-(1-ethyl-5-{[3-(trifluoromethyl)benzyl]oxy}-1H-indol-3-yl)methylidene]amino}oxy)acetic acid]"
8,96,"C=CCn1cc(/C=N/OCC(=O)O)c2cc(OCc3ccc(Cl)cc3)ccc21 [Compound 45, {[((1E)-{1-allyl-5-[(4-chlorobenzyl)oxy]-1H-indol-3-yl}methylidene)amino]oxy}acetic acid]"
9,92,"O=C(O)CO/N=C/c1cccc(-c2cccc(OCc3ccccc3)c2)c1 [Compound 64, [({(1E)-[3′-(benzyloxy)-1,1′-biphenyl-3-yl]methylidene}amino)oxy]acetic acid]"
10,46,"O=C(O)CO/N=C/c1ccc(-c2cccc(OCc3ccc4ccccc4c3)c2)cc1 [Compound 98, [({(1E)-[3′-(2-naphthylmethoxy)-1,1′-biphenyl-4-yl]methylidene}amino)oxy]acetic acid]"
11,10,"O=C(O)CO/N=C/c1ccc(-c2cccc(OCc3c(Cl)cccc3Cl)c2)cc1 [Compound 101, {[((1E)-{3′-[(2,6-dichlorobenzyl)oxy]-1,1′-biphenyl-4-yl}methylidene)amino]oxy}acetic acid]"
12,90,"Cc1ccc(COc2cc(/C=N/OCC(=O)O)cc(OCc3ccc(C)cc3)c2)cc1 [Compound 150, {[((1E)-{3,5-bis[(4-methylbenzyl)oxy]phenyl}methylidene)amino]oxy}acetic acid]"
13,86,"O=C(O)CO/N=C/c1cc(OCc2cccc(Cl)c2)cc(OCc2cccc(Cl)c2)c1 [Compound 142, {[((1E)-{3,5-bis[(3-chlorobenzyl)oxy]phenyl}methylidene)amino]oxy}acetic acid]"
14,85,"O=C(O)CO/N=C/c1cccc(-c2ccc(OCc3cccc(Br)c3)cc2)c1 [Compound 77, {[((1E)-{4′-[(3-bromobenzyl)oxy]-1,1′-biphenyl-3-yl}methylidene)amino]oxy}acetic acid]"
15,89,"O=C(O)CO/N=C/c1cccc(-c2ccc(OCc3ccccc3Cl)cc2)c1 [Compound 82, {[((1E)-{4′-[(2-chlorobenzyl)oxy]-1,1′-biphenyl-3-yl}methylidene)amino]oxy}acetic acid]"
16,86,"C=CCn1cc(/C=N/OCC(=O)O)c2cc(OCc3ccc(C(F)(F)F)cc3)ccc21 [Compound 1, ({[(1E)-(1-allyl-5-{[4-(trifluoromethyl)benzyl]oxy}-1H-indol-3-yl)methylidene]amino}oxy)acetic acid]"
17,81,"C=CCn1cc(/C=N/OCC(=O)O)c2cc(OCc3ccc4ccccc4c3)ccc21 [Compound 55, [({(1E)-[1-allyl-5-(2-naphthylmethoxy)-1H-indol-3-yl]methylidene}amino)oxy]acetic acid]"
18,79,"O=C(O)CO/N=C/c1cccc(OCc2cccc(Br)c2)c1OCc1cccc(Br)c1 [Compound 137, {[((1E)-{2,3-bis[(3-bromobenzyl)oxy]phenyl}methylidene)amino]oxy}acetic acid]"
